Some test systems named below: KM12; SNB-19; NCI-H522; UO-31; MCF7; T47D; ACHN; HCT-116; PC-3; RPMI-8226; OVCAR-5; MDA-N; MOLT-4; COLO 205; U-251; Hs-578T; A549; HOP-92; UACC-257; EKVX.
Test in all cases: growth of human tumour cells (NCI), 48 h

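Compound exposure: 48 hours, 5 concentrations, 96-well plates. GI50 marks 50% less growth.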 Calls of active or inactive are those of the source. Rule as the data show it: active = GI50 up to about 1.1 µM and inactive = higher. Some results are limits rather than exact numbers.

In the case of `CC1(C)COCN1COC1CCCCC1`, the GI50 with KM12, in the test on SNB-19, in the test with NCI-H522, with UO-31, with MCF7 and with T47D was > 100 µM (inactive) each time. Besides, the GI50 in the test on ACHN, with HCT-116, in the test on PC-3, in the test with RPMI-8226, in the test on OVCAR-5 and with MDA-N was > 100 µM (inactive) throughout. Further, the GI50 in the test with MOLT-4 is 24.1 µM (inactive); in the test on COLO 205, > 100 µM (inactive); in the test with U-251 it was > 100 µM (inactive); in the test with Hs-578T, > 100 µM (inactive); with A549, > 100 µM (inactive); in the test on HOP-92, > 100 µM (inactive). The GI50 with UACC-257 and in the test with EKVX was > 100 µM (inactive) each time.
For `CC(=O)c1c2c(cc3c1CC1(C3)Cc3ccc4c(c3C1=O)CCC4)CCC2` (stereo not given), the GI50 with KM12 was 17.2 µM (inactive); in the test on SNB-19 it was > 100 µM (inactive); in the test with NCI-H522, 0.74 µM (active); in the test on UO-31, 55.5 µM (inactive); in the test with MCF7 it was 16.7 µM (inactive); with T47D it was 9.73 µM (inactive). The GI50 was 65.3 µM (inactive) in the test with ACHN; 10.8 µM (inactive) in the test with HCT-116; 16 µM (inactive) in the test with PC-3; 13.5 µM (inactive) with RPMI-8226; > 100 µM (inactive) in the test on OVCAR-5; 13.8 µM (inactive) with MDA-N. The GI50 with MOLT-4 was 22.3 µM (inactive); with COLO 205, 11 µM (inactive); with U-251 it was 56.9 µM (inactive); with Hs-578T it was 13.5 µM (inactive); in the test with A549 it was 21.5 µM (inactive); in the test with HOP-92, 8.85 µM (inactive). Further, the GI50 in the test with UACC-257 is 2.75 µM (inactive); in the test on EKVX it was 7.13 µM (inactive).
Regarding `CC12CC3OC(=O)C1COC14OC5(C2C1=O)C(O)(CCC1C4CC(O)C2(O)CC=CC(=O)C12C)C(=O)OC35C` (stereo not given), the GI50 with KM12, in the test with SNB-19, in the test on NCI-H522, in the test on UO-31, in the test on MCF7 and in the test on T47D was > 100 µM (inactive) throughout. In addition, the GI50 is > 100 µM (inactive) in the test on ACHN; > 100 µM (inactive) in the test with HCT-116; > 100 µM (inactive) in the test on PC-3; > 100 µM (inactive) in the test with RPMI-8226; > 100 µM (inactive) in the test with OVCAR-5; 83.4 µM (inactive) in the test with MDA-N. Moreover, the GI50 in the test on MOLT-4, in the test on COLO 205, in the test on U-251, with Hs-578T, in the test on A549 and in the test on HOP-92 was > 100 µM (inactive) throughout. Besides, the GI50 with UACC-257 and in the test with EKVX was > 100 µM (inactive) throughout.
Consider `COC(=O)CCC(=O)NC1=C(NCc2ccccc2)C(=O)c2ccccc2C1=O`, for which the GI50 in the test with KM12 is 24.8 µM (inactive); in the test on SNB-19 it was 21.7 µM (inactive); with NCI-H522, 19.1 µM (inactive); with UO-31, 32.6 µM (inactive); with MCF7, 17.3 µM (inactive); with T47D it was 34 µM (inactive). The GI50 with ACHN was 27.4 µM (inactive); with HCT-116, 30.3 µM (inactive); in the test on PC-3, 25.2 µM (inactive); in the test with RPMI-8226, 34 µM (inactive); in the test on OVCAR-5 it was 29.5 µM (inactive); in the test on MDA-N, 16 µM (inactive). The GI50 is 34 µM (inactive) in the test with MOLT-4; 20.4 µM (inactive) in the test with COLO 205; 28.9 µM (inactive) in the test on U-251; > 100 µM (inactive) in the test on Hs-578T; 26.2 µM (inactive) with A549; 15.7 µM (inactive) in the test with HOP-92. Further, the results for the GI50 in the test with UACC-257 and with EKVX were 16.6 µM (inactive) and 32.9 µM (inactive), respectively.
`S=C(N/N=C(/c1ccccc1)c1ccccn1)N(Cc1ccccn1)Cc1ccccn1`: the GI50 with KM12 was 0.432 µM (active); with SNB-19, 0.444 µM (active); with NCI-H522 it was < 0.0247 µM (active); in the test with UO-31 it was 0.356 µM (active); in the test on MCF7, < 0.01 µM (active); in the test on T47D, < 0.0177 µM (active). Further, the GI50 was 0.0418 µM (active) in the test with ACHN; < 0.01 µM (active) in the test with HCT-116; 0.0541 µM (active) in the test with PC-3; < 0.0302 µM (active) in the test with RPMI-8226; 0.427 µM (active) with OVCAR-5; 1.31 µM (inactive) with MDA-N. In addition, the GI50 in the test on MOLT-4 is < 0.0302 µM (active); with COLO 205 it was < 0.0157 µM (active); in the test with U-251 it was < 0.016 µM (active); in the test on Hs-578T, 1.41 µM (inactive); with A549, 0.435 µM (active); in the test with HOP-92 it was 0.174 µM (active). Further, the GI50 was 0.0425 µM (active) in the test on UACC-257 and 0.0608 µM (active) in the test with EKVX.
Regarding `CCOC(=O)C1=CN(Cc2ccccc2)C2ON=C(c3ccc(Cl)cc3)C2C1` (stereo not given), the GI50 with KM12 is 48.2 µM (inactive); with SNB-19, > 100 µM (inactive); with NCI-H522 it was 10.4 µM (inactive); in the test on UO-31, 26.9 µM (inactive); in the test with MCF7 it was 23.6 µM (inactive); in the test on T47D it was 5.61 µM (inactive). Also, the GI50 in the test on ACHN is 31 µM (inactive); in the test with HCT-116, 19.9 µM (inactive); in the test with PC-3 it was > 36.6 µM (inactive); in the test on RPMI-8226, 22 µM (inactive); in the test with OVCAR-5, 34.4 µM (inactive); in the test with MDA-N, 17.9 µM (inactive). Moreover, the GI50 in the test on MOLT-4 was 5.4 µM (inactive); in the test on COLO 205 it was > 51.3 µM (inactive); in the test on U-251, 13.5 µM (inactive); in the test on Hs-578T, 11.6 µM (inactive); with A549, 17.6 µM (inactive); in the test on HOP-92, 18.8 µM (inactive). The figures for the GI50 with UACC-257 and in the test with EKVX were 33.3 µM (inactive) and 20.6 µM (inactive), respectively.
In the case of `CC(C)(C)C1=CC(=C2C=Cc3ccccc3O2)C=C(C(C)(C)C)C1=O`, the GI50 in the test on KM12 was 2.47 µM (inactive); in the test on SNB-19, 9.16 µM (inactive); with NCI-H522 it was 3.53 µM (inactive); in the test on UO-31, 4.68 µM (inactive); in the test on MCF7 it was 1.86 µM (inactive); in the test with T47D it was 1.77 µM (inactive). Besides, the GI50 in the test with ACHN was 5.51 µM (inactive); in the test on HCT-116 it was 2.76 µM (inactive); in the test with PC-3 it was 4.09 µM (inactive); in the test with RPMI-8226 it was 2.15 µM (inactive); in the test with OVCAR-5, 6.7 µM (inactive); in the test with MDA-N it was 2.31 µM (inactive). Besides, the GI50 in the test with MOLT-4 is 1.73 µM (inactive); with COLO 205, 2.18 µM (inactive); with U-251, 2.46 µM (inactive); with Hs-578T, 7 µM (inactive); in the test with A549, 4.16 µM (inactive); with HOP-92, 13.9 µM (inactive). The GI50 in the test with UACC-257 was 3.61 µM (inactive); with EKVX, 6.59 µM (inactive).
Consider `Cc1cc(S(=O)(=O)NC2=Nc3cccc4cccc(c34)N2)c(S)cc1Cl`, for which the GI50 in the test on KM12 is 48.1 µM (inactive); in the test with SNB-19 it was 79.1 µM (inactive); in the test on NCI-H522, > 100 µM (inactive); in the test on UO-31, > 100 µM (inactive); in the test on MCF7, > 100 µM (inactive); in the test on T47D, > 100 µM (inactive). Further, the GI50 in the test on ACHN is > 100 µM (inactive); in the test with HCT-116, 18.1 µM (inactive); with PC-3, 65.3 µM (inactive); in the test with RPMI-8226, > 100 µM (inactive); in the test on OVCAR-5, > 100 µM (inactive); in the test on MDA-N, 0.316 µM (active). The GI50 in the test on MOLT-4 is 41.6 µM (inactive); with COLO 205 it was 84.7 µM (inactive); in the test on U-251, 50 µM (inactive); in the test on Hs-578T it was > 100 µM (inactive); in the test on A549, 55.1 µM (inactive); in the test with HOP-92, > 100 µM (inactive). In addition, the GI50 with UACC-257 and with EKVX was > 100 µM (inactive) each time.
Consider `O=C1C=CC(=O)C(N(CCO)CCO)=C1.O=C1C=CC2(O)OCCN(CCO)C2=C1`, for which the GI50 with KM12, in the test with SNB-19, in the test on NCI-H522, in the test on UO-31, in the test on MCF7 and with T47D was > 100 µM (inactive) throughout. Further, the GI50 was > 100 µM (inactive) with ACHN; > 100 µM (inactive) with HCT-116; > 100 µM (inactive) in the test on PC-3; 91.6 µM (inactive) with RPMI-8226; > 100 µM (inactive) in the test with OVCAR-5; > 100 µM (inactive) in the test with MDA-N. Moreover, the GI50 with MOLT-4, in the test on COLO 205, in the test with U-251, with Hs-578T, in the test on A549 and in the test on HOP-92 was > 100 µM (inactive) in each case. Moreover, the GI50 in the test on UACC-257 and in the test with EKVX was > 100 µM (inactive) each time.
Consider `C[C@]12CC[C@H]3[C@@H](CC=C4C[C@@H](O)CC[C@@]43C)[C@@H]1C[C@H](N1CCOCC1)[C@@H]2O`, for which the GI50 in the test with KM12, in the test on SNB-19, in the test with NCI-H522, with UO-31, with MCF7 and in the test with T47D was > 100 µM (inactive) each time. For the same compound, the GI50 with ACHN, in the test on HCT-116, with PC-3, with RPMI-8226, in the test on OVCAR-5 and with MDA-N was > 100 µM (inactive) each time. The GI50 in the test on MOLT-4 was > 100 µM (inactive); in the test with COLO 205 it was > 100 µM (inactive); in the test on U-251, 49.2 µM (inactive); with Hs-578T, 85.5 µM (inactive); in the test on A549, > 100 µM (inactive); with HOP-92 it was > 100 µM (inactive). In addition, the GI50 in the test with UACC-257 and with EKVX was > 100 µM (inactive) each time.

The values are drawn from ChEMBL document CHEMBL1201862, “PubChem BioAssay data set” (2004).
